pIC50: −log10 of the molar value. Some results are limits rather than exact numbers.

The target in the test is T1, APOL1 G1 (Homo sapiens, UniProt O14791, I384M/S342G).
T1 sequence (O14791 28-398 S342G/I384M): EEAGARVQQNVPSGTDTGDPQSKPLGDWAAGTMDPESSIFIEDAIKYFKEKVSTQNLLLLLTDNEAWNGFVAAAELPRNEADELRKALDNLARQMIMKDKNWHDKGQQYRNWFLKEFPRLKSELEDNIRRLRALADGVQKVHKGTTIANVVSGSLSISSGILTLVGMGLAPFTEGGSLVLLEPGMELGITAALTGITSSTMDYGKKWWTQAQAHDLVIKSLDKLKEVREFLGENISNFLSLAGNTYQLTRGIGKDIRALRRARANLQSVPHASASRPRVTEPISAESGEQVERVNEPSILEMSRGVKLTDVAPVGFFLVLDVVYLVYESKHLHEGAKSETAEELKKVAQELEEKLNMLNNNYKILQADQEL
The test can be described thus: MultiTox-Fluor Multiplex Cytotoxicity Assay in tet-inducible APOL1 G1 T-REx-HEK293 cells (clone G1 DC3.25). Type of test: cell-based. The arrangement: expressed in transfected cells; host or cells: T-REx HEK293, pAAVS1-Puro-APOL1 G1, clone G1 DC3.25. The conditions noted are these: Multi-Tox Assay; IP50 = IC50 for cell proliferation; APOL1 variant cell line not given. The procedure: The MultiTox-Fluor Multiplex Cytotoxicity Assay is a single-reagent-addition, homogeneous, fluorescence assay that measures the number of live and dead cells simultaneously in culture wells. The assay measures cell viability and cytotoxicity by detecting two distinct protease activities. The live-cell protease activity is restricted to intact viable cells and is measured using a fluorogenic, cell-permeant peptide glycyl-phenylalanylamino fluorocoumarin (GF-AFC) substrate. The substrate enters intact cells, where it is cleaved to generate a fluorescent signal proportional to the number of living cells. […] A second, cell-impermeant, fluorogenic peptide substrate (bis-AAF-R110 Substrate) is used to measure dead-cell protease that has been released from cells that have lost membrane integrity. A ratio of dead to live cells is used to normalize data.
Briefly, the tet-inducible transgenic APOL1 T-REx-HEK293 cell lines were incubated with 50 ng/mL tet to induce APOL1 in the presence of 3-(2-(4-fluorophenyl)-1H-indol-3-yl)-N-((3S,4R)-4-hydroxy-2-oxopyrrolidin-3-yl)propenamide at […], 0.0045, 0.0015, 0.0005 μM in duplicate for 24 hours in a humidified 37° C. incubator. The MultiTox reagent was added to each well and placed back in the incubator for an additional 30 minutes. The plate was read on the EnVision plate reader. A ratio of dead to live cells was used to normalize, and data was imported, analyzed and fit using Genedata Screener (Basel, Switzerland) software. Data was normalized using percent of control, no tet (100% viability), and 50 ng/mL tet treated (0% viability), and fit using Smart Fit. The reagents, methods, and complete protocol for the MultiTox assay are described below.
Human embryonic kidney (HEK293) cell lines containing a tet-inducible expression system (T-REx™; Invitrogen, Carlsbad, CA) and Adeno-associated virus site 1 pAAVS1-Puro-APOL1 G0 or pAAVS1-Puro-APOL1 G1 or pAAVS1-Puro-APOL1 G2 Clones G0 DC2.13, G1 DC3.25, and G2 DC4.44 were grown in a T-225 flask at ˜90% confluency in cell growth media (DMEM, 10% Tet-free FBS, 2 mM L-glutamine, 100 Units/mL penicillin-streptomycin, 5 μg/mL blasticidin S HCl, 1 μg/mL puromycin dihydrochloride). Cells were washed with DPBS and then trypsinized to dissociate from the flask. Media was used to quench the trypsin, cells were then pelleted at 200 g and resuspended in fresh cell assay media (DMEM, 2% Tet-free FBS, 2 mM L-glutamine, 100 Units/mL penicillin-streptomycin). Cells were counted and diluted to 1.17×10^6 cells/mL. 20 μL of cells (23,400/well) were dispensed to every well of a 384-well Poly-D-Lysine coated plate using the Multidrop dispenser. The plates were then incubated at room temperature for one hour.
Tetracycline is needed to induce APOL1 expression. 1 mg/mL tet stock in water was diluted to 250 ng/mL (5×) in cell assay media. 60 μL of cell assay media (no tet control) was dispensed in columns 1 and 24, and 60 μL of 5× tet was dispensed in 384-PP-round bottom plate in columns 2 to 23 with the Multidrop dispenser.
Assay ready plates from the Global Compound Archive were ordered using template 384_APOL1Cell_DR10n2_50 μM_v3. Compounds were dispensed at 200 nL in DMSO. The final top concentration was 10 μM with a 10 point 3-fold dilution in duplicate in the MultiTox assay.
20 μL were transferred from the 5× tet plate to the ARP and mixed, then 5 μL of 5× tet and the compounds were transferred to the cell plate and mixed using the Bravo. The cell plate was placed in the humidified 37° C. 5% CO2 incubator for 24 hours.
The MultiTox-Fluor Multiplex Cytotoxicity Assay was performed in accordance with the manufacturer's protocol. After cells were incubated with tet and compound for 24 hours, 25 μL of 1× MultiTox reagent was added to each well using the Multidrop dispenser; the plates were placed on a plate shaker (600 rpm) for 2 minutes, then centrifuged briefly and placed back in the 37° C. incubator for 30 minutes. […]

For orientation: pIC50 means −log10 of the IC50, conventionally taken in molar units. The low end stands for a large IC50, the high end for a small IC50. Consider `[2H]C1([2H])O[C@@]2(C[C@@H](c3cn(C)nn3)N[C@@H](C)C2)c2sc(Cl)cc2[C@]1([2H])O` [Compound 385, (2S,4S,4′S,6S)-2′-chloro-4′,5′,5′-trideuterio-2-methyl-6-(1-methyltriazol-4-yl)spiro[piperidine-4,7′-thieno[2,3-c]pyran]-4′-ol], for which the pIC50 was above 7.30.

For the origin of these results see patent publication US12421249B2, “Inhibitors of APOL1 and methods of using same” (Vertex Pharmaceuticals Incorporated, priority 2020, dated 2025).
